Measured values from paper PMC11500008, “Novel quinazolin-4-one based derivatives bearing 1,2,3-triazole and glycoside moieties as potential cytotoxic agents through dual EGFR and VEGFR-2 inhibitory activity” (Scientific Reports, 2024).
Like-named read-outs stand apart in the source and are kept apart here.

Columns and labels:
[1] = tested on: HepG-2 cell line; test: MTT cytotoxicity assay, HepG-2; assay type: cell-based; settings: Homo sapiens, read-out: IC50 (mean±SD) HepG-2
Text: (§1) The recently incorporated quinazolinone-based targets 1–4, 6–13 underwent evaluation for their cytotoxic effects with in vitro employing MTT technique, according to the procedure that has been published[48]–[50], utilizing human fibroblast-derived BJ-1 normal cell line, and human cancer liver HepG-2, breast MCF-7, and colon HCT-116 cell lines. These cell lines were purchased from Karolinska Center, Department of Oncology and Pathology, Karolinska Institute and Hospital, Stockholm, Sweden, There were further details in the supplemental file.
(§2) The cell lines were obtained from Karolinska Center, Department of Oncology and Pathology, Karolinska Institute and Hospital, Stockholm, Sweden as follows: human liver HepG-2, breast MCF-7, and colorectal HCT-116 cancer cell lines and human fibroblast-derived BJ-1 normal cell line. Exponentially, cells were placed in 10^4 cells/ well for 24 h, and then add fresh medium which containing different concentration of the tested sample. Serial two-fold dilution of the tested sample were added using a multichannel pipette. Moreover, all cells were cultivated at 37 °C, 5% CO2 and 95% humidity. Also, incubation of control cells occurred at 37 °C. However, after incubation for 24 h different concentrations of sample (25, 12.5, 6.25 and 3.125 µM) were added and continued the incubation for 48 h, then, add the crystal violet solution 1% to each well for 0.5 h to examine viable cells. Rinse the wells using water until no stain. After that, add 30% glacial acetic acid to all wells with shaking plates on Microplate reader (TECAN, Inc.) to measure the absorbance, using a test wavelength of 490 nm. Besides, compare the treated samples with the control cell. The cytotoxicity was estimated by IC50 in (μM), the concentration that inhibits 50% of growth of cancer cell.

[2] = tested on: MCF-7 cell line; test: MTT cytotoxicity assay, MCF-7; assay type: cell-based; settings: Homo sapiens, read-out: IC50 (mean±SD) MCF-7
Text: as §1, §2

[3] = tested on: HCT-116 cell line; test: MTT cytotoxicity assay, HCT-116; assay type: cell-based; settings: Homo sapiens, read-out: IC50 (mean±SD) HCT-116
Text: as §1, §2

[4] = tested on: BJ-1 normal cell line; test: MTT cytotoxicity assay, normal BJ-1 fibroblasts (safety profile); assay type: cell-based; settings: Homo sapiens, read-out: IC50 (mean±SD) BJ-1
Experimental: […]. The safety profiles of all derivatives were assessed through cytotoxic evaluation using human fibroblast-derived BJ-1 normal cell lines. […].
as §1, §2

[5] = biological target: VEGFR-2 (Homo sapiens, UniProt P35968); test: In vitro VEGFR-2 inhibition assay (ELISA); settings: read-out: IC50 (mean ± SD) VEGFR-2; average of three values
Sequence of VEGFR-2 (P35968 20-1356): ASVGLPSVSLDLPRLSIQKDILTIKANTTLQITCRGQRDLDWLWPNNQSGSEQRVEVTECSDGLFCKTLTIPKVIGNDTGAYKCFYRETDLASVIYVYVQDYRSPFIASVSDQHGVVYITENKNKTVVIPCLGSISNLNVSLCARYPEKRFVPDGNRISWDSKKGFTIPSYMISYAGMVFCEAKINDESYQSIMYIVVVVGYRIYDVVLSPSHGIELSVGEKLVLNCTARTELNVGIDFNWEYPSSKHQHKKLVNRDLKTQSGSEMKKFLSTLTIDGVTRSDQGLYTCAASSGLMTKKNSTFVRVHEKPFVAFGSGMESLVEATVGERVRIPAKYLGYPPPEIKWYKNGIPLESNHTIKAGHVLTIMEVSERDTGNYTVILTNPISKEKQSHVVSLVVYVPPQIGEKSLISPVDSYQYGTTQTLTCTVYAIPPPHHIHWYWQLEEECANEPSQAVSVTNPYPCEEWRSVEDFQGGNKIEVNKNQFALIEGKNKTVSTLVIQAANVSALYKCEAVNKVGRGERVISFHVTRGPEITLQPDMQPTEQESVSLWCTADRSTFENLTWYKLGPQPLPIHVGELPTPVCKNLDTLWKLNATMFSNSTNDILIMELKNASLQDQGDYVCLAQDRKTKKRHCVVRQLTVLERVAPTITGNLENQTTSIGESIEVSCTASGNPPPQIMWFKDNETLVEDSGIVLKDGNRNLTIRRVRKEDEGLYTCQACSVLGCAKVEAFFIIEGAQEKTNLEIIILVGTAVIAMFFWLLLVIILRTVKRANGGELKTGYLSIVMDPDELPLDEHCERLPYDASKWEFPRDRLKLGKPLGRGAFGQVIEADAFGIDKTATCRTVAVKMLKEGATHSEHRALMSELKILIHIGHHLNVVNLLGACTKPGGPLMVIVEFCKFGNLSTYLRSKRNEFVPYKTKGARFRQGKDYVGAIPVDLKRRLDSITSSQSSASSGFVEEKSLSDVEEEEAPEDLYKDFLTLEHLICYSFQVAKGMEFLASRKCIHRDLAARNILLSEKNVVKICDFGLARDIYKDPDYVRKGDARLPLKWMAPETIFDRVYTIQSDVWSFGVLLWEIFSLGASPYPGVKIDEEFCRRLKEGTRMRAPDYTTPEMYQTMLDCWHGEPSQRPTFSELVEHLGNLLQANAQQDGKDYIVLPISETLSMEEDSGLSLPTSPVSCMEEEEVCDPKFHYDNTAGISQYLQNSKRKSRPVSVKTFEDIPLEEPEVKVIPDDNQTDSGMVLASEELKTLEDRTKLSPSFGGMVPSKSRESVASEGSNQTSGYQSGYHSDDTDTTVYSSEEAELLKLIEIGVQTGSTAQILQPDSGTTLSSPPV

[6] = biological target: EGFR (Homo sapiens, UniProt P00533); test: In vitro EGFR inhibition assay (Kinase-Glo luminescence)
Sequence of EGFR (P00533 25-1210): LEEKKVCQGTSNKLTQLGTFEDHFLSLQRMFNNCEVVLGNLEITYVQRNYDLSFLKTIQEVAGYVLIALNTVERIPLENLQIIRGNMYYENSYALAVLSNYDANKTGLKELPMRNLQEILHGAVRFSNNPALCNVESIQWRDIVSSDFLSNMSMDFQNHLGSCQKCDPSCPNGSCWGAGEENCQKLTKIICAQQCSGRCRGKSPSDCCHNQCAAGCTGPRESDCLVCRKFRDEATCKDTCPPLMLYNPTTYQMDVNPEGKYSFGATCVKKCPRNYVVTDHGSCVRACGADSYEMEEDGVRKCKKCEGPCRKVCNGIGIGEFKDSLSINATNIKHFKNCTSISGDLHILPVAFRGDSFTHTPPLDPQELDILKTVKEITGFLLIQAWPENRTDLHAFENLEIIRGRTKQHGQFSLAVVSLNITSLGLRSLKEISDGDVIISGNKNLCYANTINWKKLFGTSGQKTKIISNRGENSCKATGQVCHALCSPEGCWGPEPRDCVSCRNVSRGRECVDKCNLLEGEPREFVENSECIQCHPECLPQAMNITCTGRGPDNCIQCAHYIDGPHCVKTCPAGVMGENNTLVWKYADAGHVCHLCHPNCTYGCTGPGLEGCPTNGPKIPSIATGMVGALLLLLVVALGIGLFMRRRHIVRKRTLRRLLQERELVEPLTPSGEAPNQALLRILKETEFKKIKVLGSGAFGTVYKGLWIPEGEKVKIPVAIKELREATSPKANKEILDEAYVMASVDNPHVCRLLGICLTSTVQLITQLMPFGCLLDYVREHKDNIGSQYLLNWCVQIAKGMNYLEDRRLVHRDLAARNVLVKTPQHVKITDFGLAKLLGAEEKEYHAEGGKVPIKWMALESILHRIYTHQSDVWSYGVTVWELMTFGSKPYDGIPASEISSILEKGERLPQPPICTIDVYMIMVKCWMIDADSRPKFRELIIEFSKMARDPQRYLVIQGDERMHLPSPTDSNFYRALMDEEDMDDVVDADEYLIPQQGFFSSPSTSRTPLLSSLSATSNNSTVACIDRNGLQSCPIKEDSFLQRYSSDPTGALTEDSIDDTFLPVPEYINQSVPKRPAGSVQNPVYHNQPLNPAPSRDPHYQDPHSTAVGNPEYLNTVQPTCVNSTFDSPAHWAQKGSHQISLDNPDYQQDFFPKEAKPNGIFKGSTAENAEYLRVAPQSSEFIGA

[7] = HepG2, HepG-2 liver cancer cells, 48 h incubation, mean of three values
[8] = MCF7, MCF-7 breast cancer cells, 48 h incubation, mean of three values
[9] = HCT-116 colorectal cancer cells, 48 h incubation, mean of three values
[10] = BJ-1 normal fibroblast-derived cells, 48 h incubation, mean of three values

IC50 [5] [µM]	IC50 [6] [µM]	melting point [°C]	SMILES	IC50 [1, 7] [µM]	IC50 [2, 8] [µM]	IC50 [3, 9] [µM]	IC50 [4, 10] [µM]	IC50 ([1]; HepG2, 48 h) [µM]	IC50 ([2]; MCF7, 48 h) [µM]	IC50 ([3]; HCT-116, 48 h) [µM]	IC50 ([4]; Fibroblast, 48 h) [µM]
–	–	–	Cn1c(S)nc2ccccc2c1=O [Compound 2]	24.1 ± 3.1	14.9 ± 1.3	16.1 ± 1.3	> 25	–	–	–	–
–	–	–	C#CCSc1nc2ccccc2c(=O)n1-c1ccccc1 [Compound 3]	> 25	15.9 ± 1.3	14.8 ± 1.6	> 25	–	–	–	–
22.86 ± 0.13	0.35 ± 0.11	–	Cn1c(SCc2cn([C@@H]3O[C@H](CO)[C@H](O)[C@H](O)[C@H]3O)nn2)nc2ccccc2c1=O [Compound 11, 2-(((1-[β-D-Galactopyranosyl]-1 H-1,2,3-triazol-4-yl)methyl)thio)-3-methylquinazolin-4(3 H)-one]	17.8 ± 2.1	5.7 ± 0.2	5.9 ± 0.1	> 25	–	–	–	–
–	–	163 to 165	C#CCSc1nc2ccccc2c(=O)n1C [Compound 4, 3-methyl-2-(prop-2-yn-1-ylthio)quinazolin-4(3 H)-one]	21.9 ± 2.7	14.6 ± 1.1	13.5 ± 1.1	> 25	–	–	–	–
28.4 ± 0.5	21.38 ± 0.15	210 to 212	CC(=O)O[C@@H]1[C@@H](OC(C)=O)[C@H](OC(C)=O)CO[C@H]1n1cc(CSc2nc3ccccc3c(=O)n2-c2ccccc2)nn1 [Compound 8, 2-(((1-[2,3,4-tri-O-acetyl-β-D-xylopyranosyl]-1 H-1,2,3-triazol-4-yl)methyl)thio)-3-phenylquinazolin-4(3 H)-one]	21.4 ± 3.1	14 ± 1.2	< 3.12	> 25	–	–	–	–
36.33 ± 0.17	17.94 ± 0.1	–	CC(=O)OC[C@H]1O[C@@H](n2cc(CSc3nc4ccccc4c(=O)n3C)nn2)[C@H](OC(C)=O)[C@@H](OC(C)=O)[C@H]1OC(C)=O [Compound 7, 2-(((1-[2,3,4,6-Tetra-O-acetyl-β-D-galactopyranosyl]-1 H-1,2,3-triazol-4-yl)methyl)thio)-3-methylquinazolin-4(3 H)-one]	21.5 ± 2.5	17.3 ± 0.5	5.5 ± 0.1	22.9 ± 3.2	–	–	–	–
32.25 ± 0.25	18.63 ± 0.14	90 to 92	CC(=O)OC[C@H]1O[C@@H](n2cc(CSc3nc4ccccc4c(=O)n3-c3ccccc3)nn2)[C@H](OC(C)=O)[C@@H](OC(C)=O)[C@H]1OC(C)=O [Compound 6, 2-(((1-[2,3,4,6-Tetra-O-acetyl-β-D-galactopyranosyl]-1 H-1,2,3-triazol-4-yl)methyl)thio)-3-phenylquinazolin-4(3 H)-one]	19.2 ± 2.1	13.4 ± 1.2	3.2 ± 0.1	> 25	–	–	–	–
13.63 ± 0.08	15.88 ± 0.14	–	O=c1c2ccccc2nc(SCc2cn([C@@H]3OC[C@@H](O)[C@H](O)[C@H]3O)nn2)n1-c1ccccc1 [Compound 12, 2-(((1-[β-D-Xylopyranosyl]-1 H-1,2,3-triazol-4-yl)methyl)thio)-3-phenylquinazolin-4(3 H)-one]	15.1 ± 1.9	6.9 ± 0.3	3 ± 0.3	24.7 ± 2.4	–	–	–	–
–	–	–	COc1cccc2c1C(=O)c1c(O)c3c(c(O)c1C2=O)C[C@@](O)(C(=O)CO)C[C@@H]3O[C@H]1C[C@H](N)[C@H](O)[C@H](C)O1 [Doxorubicin, reference compound]	4.8 ± 0.5	5.6 ± 0.3	6.5 ± 0.5	32.1 ± 3.1	–	–	–	–
–	–	–	O=c1c2ccccc2nc(S)n1-c1ccccc1 [Compound 1]	21.9 ± 1.9	16.1 ± 1.1	18.6 ± 1.5	> 25	–	–	–	–
–	–	–	C#Cc1cccc(Nc2ncnc3cc(OCCOC)c(OCCOC)cc23)c1 [Erlotinib, reference compound]	–	–	–	–	7.8 ± 0.2	4.3 ± 0.1	7.3 ± 0.2	58.3 ± 1.4
22.33 ± 0.1	16.75 ± 0.05	–	O=c1c2ccccc2nc(SCc2cn([C@@H]3O[C@H](CO)[C@H](O)[C@H](O)[C@H]3O)nn2)n1-c1ccccc1 [Compound 10, 2-(((1-[β-D-Galactopyranosyl]-1 H-1,2,3-triazol-4-yl)methyl)thio)-3-phenylquinazolin-4(3 H)-one]	17.1 ± 1.1	8.1 ± 0.6	6.4 ± 0.4	23.5 ± 3.1	–	–	–	–
